# Source: patent US12606541B2, “PPARg modulators and methods of use” (Eisai R&D Management Co., Ltd., priority 2020, dated 2026)
# Biological target: T1, His6-TEV-PPARγ-(234-505) (Homo sapiens, UniProt P37231)
# T1 construct: The His6-TEV-PPARγ-(234-505) protein for assay was expressed and purified; TEV cleavage site (N); made in house
# T1 sequence (P37231 234-505): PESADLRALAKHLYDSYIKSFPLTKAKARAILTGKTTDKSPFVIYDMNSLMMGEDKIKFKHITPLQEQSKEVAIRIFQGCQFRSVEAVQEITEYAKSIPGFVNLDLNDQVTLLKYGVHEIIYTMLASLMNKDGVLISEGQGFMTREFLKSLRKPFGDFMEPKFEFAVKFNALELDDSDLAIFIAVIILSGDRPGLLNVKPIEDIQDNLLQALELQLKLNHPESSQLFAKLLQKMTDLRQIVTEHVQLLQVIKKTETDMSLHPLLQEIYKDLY
# Test: TR-FRET Assay to Measure Co-R Peptide Recruitment to PPARγ
# Type: biochemical
# Details: Co-R peptide (SMRT-ID2) recruitment; top final concentration 20 μM; read-out: TR-FRET i-Ag; AC50
# Method in brief: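 Corepressor recruitment is measured by adding terbium-labeled anti-His antibody and FITC SMRT-ID2 peptide, at 5 and 200 nM final, after a 20-minute room-temperature protein–compound incubation. After one further hour, signal is converted to percent response between DMSO and 500 nM T0070907 wells.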
row,AC50 [nM],Structure (SMILES)
1,373,"CC1CCC(NC(=O)C2CCN(C(=O)c3cc(-c4ccncc4Cl)[nH]n3)CC2)CC1 (mixture of isomers) [Example 109, 1-(5-(3-chloropyridin-4-yl)-1H-pyrazole-3-carbonyl)-N-(4-methylcyclohexyl)piperidine-4-carboxamide]"

# Same assay, conditions: Co-R peptide recruitment to PPARγ; read-out: TR-FRET AC50
row,AC50 [nM],Structure (SMILES)
1,> 1000,"COc1cc(-c2cc(C(=O)N3CCC(C(=O)NC4CCS(=O)(=O)c5ccc(F)cc54)CC3)n[nH]2)c(Cl)cn1 (centres unmarked) [1-[5-(5-chloro-2-methoxypyridin-4-yl)-1H-pyrazole-3-carbonyl]-N-(6-fluoro-1,1-dioxo-3,4-dihydro-2H-1λ^6-benzothiopyran-4-yl)piperidine-4-carboxamide]"
2,> 1000,"COc1cc(-c2cc(C(=O)N3CCC(C(=O)NCc4cnco4)CC3)n[nH]2)c(Cl)cn1 [1-[5-(5-chloro-2-methoxypyridin-4-yl)-1H-pyrazole-3-carbonyl]-N-[(1,3-oxazol-5-yl)methyl]piperidine-4-carboxamide]"
3,> 1000,"COc1cc(-c2cc(C(=O)N3CCC(C(=O)NC4COCOC4)CC3)n[nH]2)c(Cl)cn1 [1-[5-(5-chloro-2-methoxypyridin-4-yl)-1H-pyrazole-3-carbonyl]-N-(1,3-dioxan-5-yl)piperidine-4-carboxamide]"
4,> 1000,O=C(c1cc(-c2ccncc2)[nH]n1)N1CCC(C(=O)N2CCCCC2)CC1 [4-{3-[4-(piperidine-1-carbonyl)piperidine-1-carbonyl]-1H-pyrazol-5-yl}pyridine]
5,> 1000,O=C(NCC1CC1)C1CCN(C(=O)c2cc(-c3ccncc3)[nH]n2)CC1 [N-(cyclopropylmethyl)-1-[5-(pyridin-4-yl)-1H-pyrazole-3-carbonyl]piperidine-4-carboxamide]
6,> 1000,O=C(NCCN1CCCC1)C1CCN(C(=O)c2cc(-c3ccncc3)[nH]n2)CC1 [1-[5-(pyridin-4-yl)-1H-pyrazole-3-carbonyl]-N-[2-(pyrrolidin-1-yl)ethyl]piperidine-4-carboxamide]
7,> 1000,"COc1cc(-c2cc(C(=O)N3CCC(C(=O)NC4CC(F)(F)C4)CC3)n[nH]2)c(Cl)cn1 [1-[5-(5-chloro-2-methoxypyridin-4-yl)-1H-pyrazole-3-carbonyl]-N-(3,3-difluorocyclobutyl)piperidine-4-carboxamide]"
8,> 1000,C[C@@H](CNC(=O)C1CCN(C(=O)c2cc(-c3ccncc3)[nH]n2)CC1)c1ccccc1 [N-[(2R)-2-phenylpropyl]-1-[5-(pyridin-4-yl)-1H-pyrazole-3-carbonyl]piperidine-4-carboxamide]
9,> 1000,O=C(NC1CC1)C1CCN(C(=O)c2cc(-c3ccncc3)[nH]n2)CC1 [N-cyclopropyl-1-[5-(pyridin-4-yl)-1H-pyrazole-3-carbonyl]piperidine-4-carboxamide]
10,> 1000,"CCOc1cc(-c2cc(C(=O)N3CCC(C(=O)N[C@H]4CC[C@@](OC)(C(F)(F)F)CC4)CC34CC4)n[nH]2)c(F)cn1 (single isomer, unassigned)"
11,> 1000,O=C(N[C@H]1CC[C@H](c2ccccc2)CC1)C1CCN(C(=O)c2cc(-c3ccncc3)[nH]n2)CC1
12,> 1000,"COc1cc(-c2cc(C(=O)N3CCC(C(=O)NCc4ccc5nncn5c4)CC3)n[nH]2)c(Cl)cn1 [1-[5-(5-chloro-2-methoxypyridin-4-yl)-1H-pyrazole-3-carbonyl]-N-({[1,2,4]triazolo[4,3-a]pyridin-6-yl}methyl)piperidine-4-carboxamide]"
13,> 1000,COc1cc(-c2cc(C(=O)N3CCC(C(=O)NC4CC4C(F)(F)F)CC3)n[nH]2)c(Cl)cn1 (centres unmarked) [1-[5-(5-chloro-2-methoxypyridin-4-yl)-1H-pyrazole-3-carbonyl]-N-[2-(trifluoromethyl)cyclopropyl]piperidine-4-carboxamide]
14,> 1000,O=C(c1cc(-c2ccncc2)[nH]n1)N1CCC(C(=O)N2CCC23COC3)CC1 [1-{1-[5-(pyridin-4-yl)-1H-pyrazole-3-carbonyl]piperidine-4-carbonyl}-6-oxa-1-azaspiro[3.3]heptane]
15,> 1000,COc1cc(-c2cc(C(=O)N3CC[C@@H](C(=O)NC4CCS(=N)(=O)CC4)CC34CC4)n[nH]2)c(F)cn1 (stereo partly drawn) [(7R)-4-[5-(5-fluoro-2-methoxypyridin-4-yl)-1H-pyrazole-3-carbonyl]-N-(1-imino-1-oxo-1λ^6-thian-4-yl)-4-azaspiro[2.5]octane-7-carboxamide]
16,> 1000,"Cc1cc(CNC(=O)C2CCN(C(=O)c3cc(-c4ccncc4)[nH]n3)CC2)cnc1C [N-[(5,6-dimethylpyridin-3-yl)methyl]-1-[5-(pyridin-4-yl)-1H-pyrazole-3-carbonyl]piperidine-4-carboxamide]"
17,> 1000,COc1cc(-c2cc(C(=O)N3CCC(C(=O)NCc4ccc(C#N)nc4)CC3)n[nH]2)c(Cl)cn1 [1-[5-(5-chloro-2-methoxypyridin-4-yl)-1H-pyrazole-3-carbonyl]-N-[(6-cyanopyridin-3-yl)methyl]piperidine-4-carboxamide]

row,AC50 [nM],Structure (SMILES)
1,> 1000,Cc1ccc([C@H](C)NC(=O)C2CCN(C(=O)c3cc(-c4ccncc4)[nH]n3)CC2)cc1 [N-[(1S)-1-(4-methylphenyl)ethyl]-1-[5-(pyridin-4-yl)-1H-pyrazole-3-carbonyl]piperidine-4-carboxamide]
2,> 1000,CC(C)CN(C)C(=O)C1CCN(C(=O)c2cc(-c3ccncc3)[nH]n2)CC1 [N-methyl-N-(2-methylpropyl)-1-[5-(pyridin-4-yl)-1H-pyrazole-3-carbonyl]piperidine-4-carboxamide]
3,> 1000,"Cc1cc(-c2cc(C(=O)N3CCC(C(=O)N[C@H]4CC[C@@](O)(C(F)(F)F)CC4)CC34CC4)n[nH]2)c([C@H](C)O)cn1 (single isomer, unassigned)"
4,> 1000,"O=C(NCc1cc(Cl)ccc1Cl)C1CCN(C(=O)c2cc(-c3ccncc3)[nH]n2)CC1 [N-[(2,5-dichlorophenyl)methyl]-1-[5-(pyridin-4-yl)-1H-pyrazole-3-carbonyl]piperidine-4-carboxamide]"
5,> 1000,O=C(Nc1ccc(Cl)cc1)C1CCCN(C(=O)c2cc(-c3ccncc3)[nH]n2)C1 (centres unmarked) [N-(4-chlorophenyl)-1-[5-(pyridin-4-yl)-1H-pyrazole-3-carbonyl]piperidine-3-carboxamide]
6,> 1000,COc1cc(-c2cc(C(=O)N3CCC(C(=O)NCC4(O)CCOCC4)CC3)n[nH]2)c(Cl)cn1 [1-[5-(5-chloro-2-methoxypyridin-4-yl)-1H-pyrazole-3-carbonyl]-N-[(4-hydroxyoxan-4-yl)methyl]piperidine-4-carboxamide]
7,> 1000,O=C(Nc1cccc(Cl)c1)C1CCN(C(=O)c2cc(-c3ccncc3)[nH]n2)CC1 [N-(3-chlorophenyl)-1-[5-(pyridin-4-yl)-1H-pyrazole-3-carbonyl]piperidine-4-carboxamide]
8,> 1000,"COc1cc(-c2cc(C(=O)N3CCC(C(=O)N[C@@H]4CCCc5cccnc54)CC3)n[nH]2)c(Cl)cn1 [1-[5-(5-chloro-2-methoxypyridin-4-yl)-1H-pyrazole-3-carbonyl]-N-[(8R)-5,6,7,8-tetrahydroquinolin-8-yl]piperidine-4-carboxamide]"
9,> 1000,CN(Cc1ccccc1)C(=O)C1CCN(C(=O)c2cc(-c3ccncc3)[nH]n2)CC1 [N-benzyl-N-methyl-1-[5-(pyridin-4-yl)-1H-pyrazole-3-carbonyl]piperidine-4-carboxamide]
10,> 1000,COc1cc(-c2cc(C(=O)N3CCC4(C(=O)NCc5cccc(Cl)c5)CC4C3)n[nH]2)c(Cl)cn1 (centres unmarked) [3-[5-(5-chloro-2-methoxypyridin-4-yl)-1H-pyrazole-3-carbonyl]-N-[(3-chlorophenyl)methyl]-3-azabicyclo[4.1.0]heptane-6-carboxamide]
11,> 1000,COc1c(C)cccc1CNC(=O)C1CCN(C(=O)c2cc(-c3ccncc3)[nH]n2)CC1 [N-[(2-methoxy-3-methylphenyl)methyl]-1-[5-(pyridin-4-yl)-1H-pyrazole-3-carbonyl]piperidine-4-carboxamide]
12,> 1000,COc1cc(-c2cc(C(=O)N3CCC(C(=O)NC4CCC(=O)CC4)CC3)n[nH]2)ccn1 [1-[5-(2-methoxypyridin-4-yl)-1H-pyrazole-3-carbonyl]-N-(4-oxocyclohexyl)piperidine-4-carboxamide]
13,> 1000,COc1cc(-c2cc(C(=O)N3CCC(C(=O)NC4CCC(C)(O)CC4)CC3)n[nH]2)c(Cl)cn1 (centres unmarked)
14,> 1000,COc1cc(-c2cc(C(=O)N3CCC(C(=O)NCC4(O)CC4)CC3)n[nH]2)c(Cl)cn1 [1-[5-(5-chloro-2-methoxypyridin-4-yl)-1H-pyrazole-3-carbonyl]-N-[(1-hydroxycyclopropyl)methyl]piperidine-4-carboxamide]
15,> 1000,"CC(C)Oc1cc(-c2cc(C(=O)N3CCC(C(=O)N[C@H]4CC[C@@](O)(C(F)(F)F)CC4)CC34CC4)n[nH]2)c(F)cn1 (single isomer, unassigned)"
16,> 1000,"COc1cc(-c2cc(C(=O)N3CCC(C(=O)NCc4nnc5ccc(C(F)(F)F)cn45)CC3)n[nH]2)c(Cl)cn1 [1-[5-(5-chloro-2-methoxypyridin-4-yl)-1H-pyrazole-3-carbonyl]-N-{[6-(trifluoromethyl)-[1,2,4]triazolo[4,3-a]pyridin-3-yl]methyl}piperidine-4-carboxamide]"

row,Structure (SMILES),AC50 [nM]
1,CC(C)(C)Oc1ccc(CNC(=O)C2CCN(C(=O)c3cc(-c4ccncc4)[nH]n3)CC2)cc1 [N-{[4-(tert-butoxy)phenyl]methyl}-1-[5-(pyridin-4-yl)-1H-pyrazole-3-carbonyl]piperidine-4-carboxamide],> 1000
